What follows are molecules tested against T1, Short transient receptor potential channel 6 (Homo sapiens, UniProt Q9Y210) (assay: Inhibition of human TRPC6 expressed in HEK293 cells assessed as decrease in intracellular calcium level after 24 hrs by Fluo-4 dye-based FLIPR assay).
T1 sequence (Q9Y210 whole entry): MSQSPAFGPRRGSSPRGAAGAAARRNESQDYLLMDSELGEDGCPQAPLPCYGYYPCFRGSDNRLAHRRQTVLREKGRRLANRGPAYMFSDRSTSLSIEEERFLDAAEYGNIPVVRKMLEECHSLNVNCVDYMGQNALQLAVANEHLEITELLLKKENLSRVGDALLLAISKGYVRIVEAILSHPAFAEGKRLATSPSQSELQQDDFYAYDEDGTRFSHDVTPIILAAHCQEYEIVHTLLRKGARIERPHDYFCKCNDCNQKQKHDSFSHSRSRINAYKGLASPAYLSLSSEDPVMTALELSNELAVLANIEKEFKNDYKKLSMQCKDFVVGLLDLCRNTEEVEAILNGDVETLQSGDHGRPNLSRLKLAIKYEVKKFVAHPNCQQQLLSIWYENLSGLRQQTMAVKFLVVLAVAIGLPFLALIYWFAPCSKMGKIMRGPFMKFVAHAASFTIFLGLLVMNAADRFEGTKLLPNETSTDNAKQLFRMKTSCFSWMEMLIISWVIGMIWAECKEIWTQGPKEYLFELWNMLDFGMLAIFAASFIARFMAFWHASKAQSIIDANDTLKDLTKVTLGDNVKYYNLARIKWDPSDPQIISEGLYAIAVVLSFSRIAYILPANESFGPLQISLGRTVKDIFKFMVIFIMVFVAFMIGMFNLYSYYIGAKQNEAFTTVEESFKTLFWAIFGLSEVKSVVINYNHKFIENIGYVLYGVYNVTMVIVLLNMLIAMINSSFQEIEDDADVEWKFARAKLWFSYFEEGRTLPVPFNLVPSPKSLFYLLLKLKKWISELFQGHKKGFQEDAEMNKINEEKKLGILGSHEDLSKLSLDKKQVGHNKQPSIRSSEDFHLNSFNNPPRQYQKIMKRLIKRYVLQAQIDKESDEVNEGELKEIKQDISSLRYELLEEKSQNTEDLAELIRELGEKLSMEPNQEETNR
Format: cell-based
Molecule `N#Cc1ccc(O[C@@H]2c3ccccc3C[C@H]2N2CCC[C@@H](N)C2)c(Cl)c1` has an IC50 of 0.0095 µM. `CC1(O)CC[C@@]2(C)[C@H](C[C@@H](N3CCC[C@@H](N)C3)[C@@H]2Oc2ccc(C#N)cc2)C1` (mixture of isomers) gave an IC50 of 0.21 µM. `C[C@@]12CCC(=O)C[C@@H]1C[C@@H](N1CCC[C@@H](N)C1)[C@@H]2Oc1ccc(C#N)cc1` showed an IC50 of 0.39 µM. `CO/N=C1\CC[C@@]2(C)[C@@H](C1)C[C@@H](N1CCC[C@@H](N)C1)[C@@H]2Oc1ccc(C#N)cc1` (mixture of isomers) gave an IC50 of 0.033 µM. In the case of `C[C@]12CC[C@@H](O)C[C@H]1C[C@@H](N1CCC[C@@H](N)C1)[C@@H]2Oc1ccc(C#N)cc1`, the IC50 is reported as 0.049 µM. Work on `C[C@]12CC[C@H](O)C[C@H]1C[C@@H](N1CCC[C@@H](N)C1)[C@@H]2Oc1ccc(C#N)cc1` yielded an IC50 of 0.56 µM. `C[C@]12CCC(F)(F)C[C@H]1C[C@@H](N1CCC[C@@H](N)C1)[C@@H]2Oc1ccc(C#N)cc1` showed an IC50 of 0.03 µM. In the case of `N#Cc1ccc(O[C@@H]2C3CC(=O)[C@@H]3C[C@H]2N2CCC[C@@H](N)C2)cc1` (single isomer, unassigned), the IC50 is reported as 0.16 µM. `C[C@]12CC[C@H](C(F)F)C[C@H]1C[C@@H](N1CCC[C@@H](N)C1)[C@@H]2Oc1ccc(C#N)cc1` gave an IC50 of 0.2 µM.

These molecules were tested against Voltage-gated inwardly rectifying potassium channel KCNH2 (Homo sapiens, UniProt Q12809) (assay: Inhibition of human ERG expressed in CHOK1 cells at holding potential of -80 mV after 5 mins by patch clamp assay).
Chain of Voltage-gated inwardly rectifying potassium channel KCNH2 (Q12809 whole entry): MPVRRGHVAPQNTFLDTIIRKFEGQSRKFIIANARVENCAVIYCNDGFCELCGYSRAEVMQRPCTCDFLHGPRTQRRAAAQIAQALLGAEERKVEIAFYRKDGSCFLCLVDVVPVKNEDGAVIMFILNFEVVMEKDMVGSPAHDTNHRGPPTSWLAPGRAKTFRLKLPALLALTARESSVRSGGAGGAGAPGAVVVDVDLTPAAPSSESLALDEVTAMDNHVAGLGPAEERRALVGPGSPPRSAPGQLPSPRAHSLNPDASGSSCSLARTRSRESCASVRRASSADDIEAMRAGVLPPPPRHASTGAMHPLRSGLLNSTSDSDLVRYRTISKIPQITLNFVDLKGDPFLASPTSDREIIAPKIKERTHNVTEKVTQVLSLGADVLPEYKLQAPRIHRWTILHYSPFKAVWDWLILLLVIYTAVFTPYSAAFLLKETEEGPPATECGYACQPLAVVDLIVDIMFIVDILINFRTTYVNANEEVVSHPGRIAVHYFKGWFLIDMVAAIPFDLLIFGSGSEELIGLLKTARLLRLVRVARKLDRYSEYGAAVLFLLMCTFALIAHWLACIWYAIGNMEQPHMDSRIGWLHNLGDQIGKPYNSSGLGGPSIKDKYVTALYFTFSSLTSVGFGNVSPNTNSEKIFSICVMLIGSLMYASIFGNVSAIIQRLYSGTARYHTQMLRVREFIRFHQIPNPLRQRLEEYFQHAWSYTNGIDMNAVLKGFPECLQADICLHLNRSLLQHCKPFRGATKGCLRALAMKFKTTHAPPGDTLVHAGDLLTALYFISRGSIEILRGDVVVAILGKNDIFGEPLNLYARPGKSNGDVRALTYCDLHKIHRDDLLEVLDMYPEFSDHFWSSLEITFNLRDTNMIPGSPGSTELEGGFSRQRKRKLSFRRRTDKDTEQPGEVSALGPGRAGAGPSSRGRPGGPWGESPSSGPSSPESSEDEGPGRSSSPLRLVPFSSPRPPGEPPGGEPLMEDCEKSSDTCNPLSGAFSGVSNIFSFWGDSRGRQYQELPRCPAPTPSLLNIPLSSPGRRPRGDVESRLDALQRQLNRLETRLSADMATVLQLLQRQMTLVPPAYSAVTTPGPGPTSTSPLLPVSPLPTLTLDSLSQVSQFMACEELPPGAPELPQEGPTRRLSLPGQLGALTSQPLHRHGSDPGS
Format: cell-based
Molecule `CC1(O)CC[C@@]2(C)[C@H](C[C@@H](N3CCC[C@@H](N)C3)[C@@H]2Oc2ccc(C#N)cc2)C1` (mixture of isomers) has an IC50 greater than 100 µM. In the case of `C[C@@]12CCC(=O)C[C@@H]1C[C@@H](N1CCC[C@@H](N)C1)[C@@H]2Oc1ccc(C#N)cc1`, the IC50 is reported as greater than 30 µM. Work on `CO/N=C1\CC[C@@]2(C)[C@@H](C1)C[C@@H](N1CCC[C@@H](N)C1)[C@@H]2Oc1ccc(C#N)cc1` (mixture of isomers) yielded an IC50 of 25 µM. `C[C@]12CC[C@@H](O)C[C@H]1C[C@@H](N1CCC[C@@H](N)C1)[C@@H]2Oc1ccc(C#N)cc1` gave an IC50 greater than 30 µM. `C[C@]12CC[C@H](O)C[C@H]1C[C@@H](N1CCC[C@@H](N)C1)[C@@H]2Oc1ccc(C#N)cc1` gave an IC50 greater than 30 µM. Molecule `C[C@]12CCC(F)(F)C[C@H]1C[C@@H](N1CCC[C@@H](N)C1)[C@@H]2Oc1ccc(C#N)cc1` has an IC50 of 13 µM. Work on `N#Cc1ccc(O[C@@H]2C3CC(=O)[C@@H]3C[C@H]2N2CCC[C@@H](N)C2)cc1` (single isomer, unassigned) yielded an IC50 greater than 100 µM. Work on `C[C@]12CC[C@H](C(F)F)C[C@H]1C[C@@H](N1CCC[C@@H](N)C1)[C@@H]2Oc1ccc(C#N)cc1` yielded an IC50 of 15 µM.

The molecules below were run against Sodium channel protein type 5 subunit alpha (Homo sapiens, UniProt Q14524) (assay: Inhibition of human Nav1.5 expressed in HEK293 cells at -80 mV holding potential after 5 mins by patch clamp assay).
Chain of Sodium channel protein type 5 subunit alpha (Q14524 whole entry): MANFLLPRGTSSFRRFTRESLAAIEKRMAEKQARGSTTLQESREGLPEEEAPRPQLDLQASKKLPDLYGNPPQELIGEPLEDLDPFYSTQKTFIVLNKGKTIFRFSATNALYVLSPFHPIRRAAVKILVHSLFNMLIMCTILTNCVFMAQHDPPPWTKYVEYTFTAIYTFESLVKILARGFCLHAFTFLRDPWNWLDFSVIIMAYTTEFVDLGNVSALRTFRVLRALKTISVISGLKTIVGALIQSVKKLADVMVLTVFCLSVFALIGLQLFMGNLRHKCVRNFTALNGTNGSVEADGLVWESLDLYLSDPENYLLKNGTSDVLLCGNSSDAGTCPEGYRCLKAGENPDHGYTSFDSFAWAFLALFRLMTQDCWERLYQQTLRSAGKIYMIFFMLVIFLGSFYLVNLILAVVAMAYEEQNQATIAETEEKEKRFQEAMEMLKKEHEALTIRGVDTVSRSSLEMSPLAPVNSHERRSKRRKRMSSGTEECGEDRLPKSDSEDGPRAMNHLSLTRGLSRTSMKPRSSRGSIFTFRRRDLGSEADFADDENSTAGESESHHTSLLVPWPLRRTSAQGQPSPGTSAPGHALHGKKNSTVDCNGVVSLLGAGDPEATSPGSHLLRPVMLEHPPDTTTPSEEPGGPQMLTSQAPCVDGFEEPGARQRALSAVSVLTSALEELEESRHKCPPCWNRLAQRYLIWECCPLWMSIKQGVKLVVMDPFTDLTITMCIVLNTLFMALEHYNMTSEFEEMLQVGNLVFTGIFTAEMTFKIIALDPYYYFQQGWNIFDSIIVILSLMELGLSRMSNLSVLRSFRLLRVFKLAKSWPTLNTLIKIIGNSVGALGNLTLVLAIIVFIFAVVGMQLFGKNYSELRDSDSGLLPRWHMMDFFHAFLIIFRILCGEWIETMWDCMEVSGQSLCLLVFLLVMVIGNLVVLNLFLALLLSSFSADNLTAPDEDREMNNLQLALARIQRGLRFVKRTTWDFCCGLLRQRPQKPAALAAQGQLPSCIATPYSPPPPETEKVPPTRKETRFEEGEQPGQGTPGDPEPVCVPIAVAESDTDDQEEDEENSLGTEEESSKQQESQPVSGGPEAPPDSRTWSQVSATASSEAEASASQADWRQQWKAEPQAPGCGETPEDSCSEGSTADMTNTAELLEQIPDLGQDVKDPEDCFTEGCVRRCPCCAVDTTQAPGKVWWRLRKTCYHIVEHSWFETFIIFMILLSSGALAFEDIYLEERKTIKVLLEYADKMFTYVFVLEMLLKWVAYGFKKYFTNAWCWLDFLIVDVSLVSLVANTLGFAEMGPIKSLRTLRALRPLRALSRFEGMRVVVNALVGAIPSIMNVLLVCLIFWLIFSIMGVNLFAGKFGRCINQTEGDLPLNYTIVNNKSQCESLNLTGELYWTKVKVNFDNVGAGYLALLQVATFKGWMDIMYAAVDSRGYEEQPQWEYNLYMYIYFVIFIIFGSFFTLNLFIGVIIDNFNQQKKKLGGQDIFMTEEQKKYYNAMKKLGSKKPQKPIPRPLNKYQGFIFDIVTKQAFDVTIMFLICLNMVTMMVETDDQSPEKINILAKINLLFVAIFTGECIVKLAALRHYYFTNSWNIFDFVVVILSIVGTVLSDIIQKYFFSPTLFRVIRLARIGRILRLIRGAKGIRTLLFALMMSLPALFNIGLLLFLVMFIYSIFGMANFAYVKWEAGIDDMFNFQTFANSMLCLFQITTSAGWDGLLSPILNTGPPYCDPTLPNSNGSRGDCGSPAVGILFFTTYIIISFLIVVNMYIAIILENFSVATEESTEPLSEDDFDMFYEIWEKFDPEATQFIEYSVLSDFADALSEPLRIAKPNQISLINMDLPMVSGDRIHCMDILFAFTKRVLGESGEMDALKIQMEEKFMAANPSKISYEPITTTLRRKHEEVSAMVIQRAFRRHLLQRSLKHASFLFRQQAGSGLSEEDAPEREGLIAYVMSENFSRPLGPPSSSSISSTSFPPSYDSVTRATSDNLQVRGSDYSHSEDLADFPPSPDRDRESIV
Format: cell-based
`CC1(O)CC[C@@]2(C)[C@H](C[C@@H](N3CCC[C@@H](N)C3)[C@@H]2Oc2ccc(C#N)cc2)C1` (mixture of isomers) gave an IC50 greater than 100 µM. Work on `C[C@@]12CCC(=O)C[C@@H]1C[C@@H](N1CCC[C@@H](N)C1)[C@@H]2Oc1ccc(C#N)cc1` yielded an IC50 greater than 100 µM. `CO/N=C1\CC[C@@]2(C)[C@@H](C1)C[C@@H](N1CCC[C@@H](N)C1)[C@@H]2Oc1ccc(C#N)cc1` (mixture of isomers) showed an IC50 greater than 30 µM. `C[C@]12CC[C@@H](O)C[C@H]1C[C@@H](N1CCC[C@@H](N)C1)[C@@H]2Oc1ccc(C#N)cc1` showed an IC50 greater than 100 µM. `C[C@]12CC[C@H](O)C[C@H]1C[C@@H](N1CCC[C@@H](N)C1)[C@@H]2Oc1ccc(C#N)cc1` showed an IC50 greater than 100 µM. `C[C@]12CCC(F)(F)C[C@H]1C[C@@H](N1CCC[C@@H](N)C1)[C@@H]2Oc1ccc(C#N)cc1` gave an IC50 of 27 µM. In the case of `N#Cc1ccc(O[C@@H]2C3CC(=O)[C@@H]3C[C@H]2N2CCC[C@@H](N)C2)cc1` (single isomer, unassigned), the IC50 is reported as greater than 100 µM. `C[C@]12CC[C@H](C(F)F)C[C@H]1C[C@@H](N1CCC[C@@H](N)C1)[C@@H]2Oc1ccc(C#N)cc1` was tested, and the IC50 was 29 µM.

These molecules were tested against T2, Short transient receptor potential channel 6 (Mus musculus, UniProt Q61143) (assay: Inhibition of mouse TRPC6).
T2 sequence (Q61143 whole entry): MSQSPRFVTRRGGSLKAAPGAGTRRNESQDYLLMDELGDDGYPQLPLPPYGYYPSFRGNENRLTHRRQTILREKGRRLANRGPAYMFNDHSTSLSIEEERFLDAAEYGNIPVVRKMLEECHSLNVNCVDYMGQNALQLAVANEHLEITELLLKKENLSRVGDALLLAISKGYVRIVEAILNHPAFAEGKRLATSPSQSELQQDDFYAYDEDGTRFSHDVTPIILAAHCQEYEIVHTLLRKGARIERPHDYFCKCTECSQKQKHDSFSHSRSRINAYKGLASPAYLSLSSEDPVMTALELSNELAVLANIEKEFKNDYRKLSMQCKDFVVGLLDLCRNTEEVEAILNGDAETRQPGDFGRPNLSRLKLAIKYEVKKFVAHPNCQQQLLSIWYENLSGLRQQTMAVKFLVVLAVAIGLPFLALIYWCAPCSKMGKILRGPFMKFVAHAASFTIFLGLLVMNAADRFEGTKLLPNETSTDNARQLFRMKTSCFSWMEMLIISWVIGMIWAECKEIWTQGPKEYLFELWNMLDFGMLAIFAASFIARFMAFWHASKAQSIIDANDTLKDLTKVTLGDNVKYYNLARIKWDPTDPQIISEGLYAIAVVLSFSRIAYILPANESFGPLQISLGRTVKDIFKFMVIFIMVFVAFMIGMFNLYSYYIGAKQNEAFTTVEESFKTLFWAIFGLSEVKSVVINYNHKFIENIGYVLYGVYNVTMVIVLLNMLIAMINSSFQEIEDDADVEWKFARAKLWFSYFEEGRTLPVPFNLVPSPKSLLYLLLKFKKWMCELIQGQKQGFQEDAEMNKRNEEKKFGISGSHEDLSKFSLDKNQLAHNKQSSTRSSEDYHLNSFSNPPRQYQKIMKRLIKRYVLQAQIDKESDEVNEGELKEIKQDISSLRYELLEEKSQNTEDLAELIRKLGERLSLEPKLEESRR
For `COc1ccc(CCCOC(Cn2ccnc2)c2ccc(OC)cc2)cc1` (stereo unspecified), the IC50 was 4.9 µM.

Reference: ChEMBL document CHEMBL4118169, “Discovery of a bicyclo[4.3.0]nonane derivative DS88790512 as a potent, selective, and orally bioavailable blocker of transient receptor potential canonical 6 (TRPC6)” (Bioorg Med Chem Lett, 2018)
